Measured values taken from BindingDB's records for patent US9610299 (Gilead Sciences, 2017).

Assays:
[1] = target: T1, Aldehyde dehydrogenase, mitochondrial (Homo sapiens, UniProt P05091); test: ALDH2 Assay
T1 sequence (P05091 whole entry): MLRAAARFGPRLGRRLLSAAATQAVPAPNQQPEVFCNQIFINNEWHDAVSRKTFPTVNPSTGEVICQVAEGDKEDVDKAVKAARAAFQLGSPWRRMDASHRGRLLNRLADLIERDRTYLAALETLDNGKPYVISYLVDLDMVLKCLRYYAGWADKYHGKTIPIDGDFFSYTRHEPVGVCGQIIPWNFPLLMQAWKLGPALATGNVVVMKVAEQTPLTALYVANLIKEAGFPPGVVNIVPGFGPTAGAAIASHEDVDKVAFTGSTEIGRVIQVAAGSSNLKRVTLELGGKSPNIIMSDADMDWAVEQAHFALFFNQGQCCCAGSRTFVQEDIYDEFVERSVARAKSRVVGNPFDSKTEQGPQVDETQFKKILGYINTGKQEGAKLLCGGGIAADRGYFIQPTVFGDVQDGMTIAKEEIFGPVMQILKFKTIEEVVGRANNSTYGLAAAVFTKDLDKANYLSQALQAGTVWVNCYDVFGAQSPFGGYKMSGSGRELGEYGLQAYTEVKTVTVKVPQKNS
Method: Standard ALDH2 reaction mixtures contained 150 uM formaldehyde, 2.5 mM NAD+, 10 mM MgCl2 and 10 nM recombinant human ALDH2 in 50 mM Hepes buffer, pH 7.4, 0.01% Tween 20 in a final volume of 50 ul using 384-well plates. After 60 min of pre-incubation of compound with ALDH2 and formaldehyde, the reaction was started by adding NAD+ and the reaction mixture was allowed to proceed for 90 minutes. Activity of the enzyme was determined by monitoring NADH formation using Perkin-Elmer Envision Reader with excitation and emission wavelengths set at 340 and 460 nm, respectively.

[2] = target: T2, Amine oxidase [flavin-containing] B (Homo sapiens, UniProt P27338); test: MAO-A and MAO-B Assay
T2 sequence (P27338 whole entry): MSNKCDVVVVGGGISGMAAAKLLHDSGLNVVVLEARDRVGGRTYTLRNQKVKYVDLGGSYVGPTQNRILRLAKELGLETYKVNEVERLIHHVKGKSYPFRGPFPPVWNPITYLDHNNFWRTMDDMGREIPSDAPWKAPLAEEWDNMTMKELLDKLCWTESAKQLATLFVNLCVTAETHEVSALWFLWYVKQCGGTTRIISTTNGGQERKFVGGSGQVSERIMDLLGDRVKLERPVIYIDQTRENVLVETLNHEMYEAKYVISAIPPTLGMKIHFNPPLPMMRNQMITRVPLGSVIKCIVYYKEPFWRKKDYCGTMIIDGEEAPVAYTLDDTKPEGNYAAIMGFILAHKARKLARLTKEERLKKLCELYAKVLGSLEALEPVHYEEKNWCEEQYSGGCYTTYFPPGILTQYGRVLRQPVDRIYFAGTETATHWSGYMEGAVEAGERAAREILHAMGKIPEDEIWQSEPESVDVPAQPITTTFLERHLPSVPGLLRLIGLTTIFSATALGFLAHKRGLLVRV
Method: (§1) MAO assays included luminogenic MAO substrate, reaction buffers, Luciferin Detection and the reconstitution buffer with esterase. Standard MAO reaction mixtures included microsome contained MAO-A (2 ug) or MAO-B (10 ug), 160 uM substrate for MAO-A or 16 uM substrate for MAO-B, MAO-A buffer (100 mM Hepes buffer, pH 7.5, 5% glycerol) or MAO-B buffer (100 mM Hepes, pH 7.5, 5% glycerol, 10% dimethyl sulfoxide) in a final volume of 30 ul. After 20 minutes of pre-incubation of the enzyme with compounds, the reaction was initiated by adding enzyme substrate and the reaction was allowed to proceed for 60 minutes. Reconstituted Luciferin Detection Reagent (30 ul) was then added is added to simultaneously stop the MAO reaction and convert the methyl ester derivative to luciferin and produce light. The amount of light produced is directly proportional to the activity of MAO. The mixtures were further incubated for 20 minutes and activity of the enzyme was determined using Perkin-Elmer Envision Reader.

[3] = target: T3, Amine oxidase [flavin-containing] A (Homo sapiens, UniProt P21397); test: MAO-A and MAO-B Assay
T3 sequence (P21397 whole entry): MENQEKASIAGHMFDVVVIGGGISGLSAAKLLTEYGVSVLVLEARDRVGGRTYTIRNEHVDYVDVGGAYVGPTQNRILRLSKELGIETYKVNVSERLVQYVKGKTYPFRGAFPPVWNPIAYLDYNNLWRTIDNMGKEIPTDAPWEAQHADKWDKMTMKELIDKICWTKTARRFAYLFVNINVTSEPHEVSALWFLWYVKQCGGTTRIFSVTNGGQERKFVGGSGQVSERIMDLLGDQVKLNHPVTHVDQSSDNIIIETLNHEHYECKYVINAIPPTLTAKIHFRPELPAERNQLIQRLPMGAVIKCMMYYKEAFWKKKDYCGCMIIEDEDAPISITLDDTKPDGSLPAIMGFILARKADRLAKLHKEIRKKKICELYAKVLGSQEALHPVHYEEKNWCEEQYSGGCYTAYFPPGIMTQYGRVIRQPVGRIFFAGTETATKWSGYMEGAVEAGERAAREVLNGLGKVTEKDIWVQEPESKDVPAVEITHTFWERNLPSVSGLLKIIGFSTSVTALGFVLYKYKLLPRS
Method: as §1

`Cc1cccc(C)c1C(=O)NCc1ccc(C2CCNC(=O)C2)cc1` (stereo not drawn) [US9610299, Example 6] was tested, and the IC50 [1] was 1.11 µM, the IC50 [2] was over 130 µM and the IC50 [3] was over 130 µM.
